Test results published in PubChem BioAssay AID1963825 (Molecular Pharmacology Branch, DTP, NCI, 2024).

Assay: Anticancer human tumor 997537-175-T-J1-PDC patient-derived colon adenocarcinoma cell line growth inhibition [POLQ]
Settings: 997537-175-T-J1-PDC complex spheroid viability, combination with POLQ inhibitors; for IC50: curve of first compound; for viability, T/C: stronger effect = lower value; active = viability on the fitted dose curve at most 10% of control; inactive = the rest
In short: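 Complex spheroid viability model combining PDC tumour cells with endothelial (HUVEC) and MSC stromal cells. Novobiocin, ART-558 or RP6685 were tested singly and in combination with standard and investigational anticancer drugs. Each was titrated in half-log steps from near clinical Cmax, or from 10 microM where Cmax was unknown.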
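Note: luminescence signal used as a surrogate for viable cells; spheroids exposed to drugs for seven days before readout.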

C=CCn1c(=O)c2cnc(Nc3ccc(N4CCN(C)CC4)cc3)nc2n1-c1cccc(C(C)(C)O)n1 + Nc1ccc(C#CCN(C(=O)Cc2ncc(C(F)(F)F)cc2C(F)(F)F)c2ccc(F)cc2)nn1
> 1 µM: IC50 (second compound 0.0316 µM) | IC50 (second compound 0.1 µM) | IC50 (second compound 0.316 µM) | IC50 (second compound 1 µM) | IC50 (second compound 3.16 µM) | IC50 (second compound 10 µM)
inactive: viability, T/C (second compound 0.0316 µM, first compound 0.00316 µM) 92.5% | viability, T/C (second compound 0.0316 µM, first compound 0.01 µM) 99.7% | viability, T/C (second compound 0.0316 µM, first compound 0.0316 µM) 89.3% | viability, T/C (second compound 0.0316 µM, first compound 0.1 µM) 97.9% | viability, T/C (second compound 0.0316 µM, first compound 0.316 µM) 89.8% | viability, T/C (second compound 0.0316 µM, first compound 1 µM) 50.6% | viability, T/C (second compound 0.1 µM, first compound 0.00316 µM) 95.9% | viability, T/C (second compound 0.1 µM, first compound 0.01 µM) 96.8% | viability, T/C (second compound 0.1 µM, first compound 0.0316 µM) 94.4% | viability, T/C (second compound 0.1 µM, first compound 0.1 µM) 95.1% | viability, T/C (second compound 0.1 µM, first compound 0.316 µM) 98.4% | viability, T/C (second compound 0.1 µM, first compound 1 µM) 73% | viability, T/C (second compound 0.316 µM, first compound 0.00316 µM) 92.6% | viability, T/C (second compound 0.316 µM, first compound 0.01 µM) 97.3% | viability, T/C (second compound 0.316 µM, first compound 0.0316 µM) 90.8% | viability, T/C (second compound 0.316 µM, first compound 0.1 µM) 82% | viability, T/C (second compound 0.316 µM, first compound 0.316 µM) 76.3% | viability, T/C (second compound 0.316 µM, first compound 1 µM) 55.1% | viability, T/C (second compound 1 µM, first compound 0.00316 µM) 88.3% | viability, T/C (second compound 1 µM, first compound 0.01 µM) 104% | viability, T/C (second compound 1 µM, first compound 0.0316 µM) 94.4% | viability, T/C (second compound 1 µM, first compound 0.1 µM) 84.5% | viability, T/C (second compound 1 µM, first compound 0.316 µM) 92.9% | viability, T/C (second compound 1 µM, first compound 1 µM) 62.2% | viability, T/C (second compound 3.16 µM, first compound 0.00316 µM) 81.3% | viability, T/C (second compound 3.16 µM, first compound 0.01 µM) 93.7% | viability, T/C (second compound 3.16 µM, first compound 0.0316 µM) 94.8% | viability, T/C (second compound 3.16 µM, first compound 0.1 µM) 94.3% | viability, T/C (second compound 3.16 µM, first compound 0.316 µM) 106% | viability, T/C (second compound 3.16 µM, first compound 1 µM) 55.1% | viability, T/C (second compound 10 µM, first compound 0.00316 µM) 96.5% | viability, T/C (second compound 10 µM, first compound 0.01 µM) 85.5% | viability, T/C (second compound 10 µM, first compound 0.0316 µM) 87.6% | viability, T/C (second compound 10 µM, first compound 0.1 µM) 80.9% | viability, T/C (second compound 10 µM, first compound 0.316 µM) 97.4% | viability, T/C (second compound 10 µM, first compound 1 µM) 72.9%
